From patent US4318916A, “Antibiotic PS-5 and derivatives having β-lactamase inhibitory activity and production thereof” (Sanraku-Ocean Co., Ltd., priority 1977, dated 1982)

Test system: Staphylococcus aureus Smith
Assay: Therapeutic activity of antibiotic PS-5 sodium salt in infected mice
Format: in vivo
Conditions: mice infected with pathogenic Gram-positive bacteria
Text: The therapeutic activity of the antibiotic PS-5 sodium salt was studied by treating mice intraperitoneally infected with 5×10^5 cells/mouse of Staphylococcus aureus Smith. Soon after the infection, an aqueous solution of the antibiotic PS-5 sodium salt was subcutaneously injected.

**Q.** How did the “Therapeutic effect in infected mice” value turn out when `CCC1C(=O)N2C(C(=O)O)=C(SCCNC(C)=O)CC12` (single isomer, unassigned) [Antibiotic PS-5] was run?
**A.** Its value is “marked therapeutic effect”.
